# Data as given in ChEMBL document CHEMBL6153037, “Developing dual-responsive quinolinium prodrugs of 8-hydroxyquinoline by harnessing the dual chelating sites” (Eur J Med Chem, 2025).
# Active and inactive are the calls of the source. No cut-off for these calls is given here.
# Columns and labels:
# MDA-MB-231 [1] = assay: Cytotoxicity against human MDA-MB-231 cells incubated for 48 hrs by MTT assay; type: functional, cell-based; conditions: MDA-MB-231, 48 h
# MDA-MB-231 [2] = assay: Cytotoxicity against human MDA-MB-231 cells incubated for 24 hrs by MTT assay; type: functional, cell-based; conditions: MDA-MB-231, 24 h
# MDA-MB-231 [3] = assay: Cytotoxicity against human MDA-MB-231 cells assessed as inhibition of cell viability incubated for 48 hrs by MTT assay; type: functional, cell-based; conditions: MDA-MB-231, 48 h
# MCF-10A [4] = assay: Cytotoxicity against human MCF-10A cells assessed as inhibition of cell viability at 150 uM incubated for 48 hrs by MTT assay; type: toxicity, cell-based
# [5] = Selectivity index, ratio of inhibition of DNA synthesis in human MCF-10A cells to inhibition of DNA synthesis in human MDA-MB-231 cells; type: toxicity, cell-based; conditions: MCF-10A cells and MDA-MB-231 cells
# [6] = Lipophilicity, logP of compound; type: physicochemical; conditions: octanol/water; read-out: logP
# [7] = Lipophilicity, logD of compound at pH 7.4; type: physicochemical; conditions: buffer, read-out: logD
# [8] = Solubility of compound in double distilled H2O; type: physicochemical; conditions: double distilled water
# [9] = Solubility of compound in PBS buffer at pH 7.4; type: physicochemical
# MDA-MB-231 [10] = assay: Induction of apoptosis in human MDA-MB-231 cells assessed as viable cells incubated for 24 hrs by Annexin V-FITC/PI staining based flow cytometry (reference value: 99.5 %); type: functional
# MDA-MB-231 [11] = assay: Induction of apoptosis in human MDA-MB-231 cells assessed as early apoptotic cells incubated for 24 hrs by Annexin V-FITC/PI staining based flow cytometry (reference value: 0.22 %); type: functional
# MDA-MB-231 [12] = assay: Induction of apoptosis in human MDA-MB-231 cells assessed as late apoptotic cells incubated for 24 hrs by Annexin V-FITC/PI staining based flow cytometry (reference value: 0.17 %); type: functional
# MDA-MB-231 [13] = assay: Induction of apoptosis in human MDA-MB-231 cells assessed as necrotic cells incubated for 24 hrs by Annexin V-FITC/PI staining based flow cytometry (reference value: 0.065 %); type: functional
# [14] = Induction of apoptosis in human MCF-10A cells assessed as viable cells incubated for 24 hrs by Annexin V-FITC/PI staining based flow cytometry (reference value: 96.0 %); type: toxicity, cell-based; conditions: read-out: Activity
# MCF-10A [15] = assay: Induction of apoptosis in human MCF-10A cells assessed as early apoptotic cells incubated for 24 hrs by Annexin V-FITC/PI staining based flow cytometry (reference value: 1.66 %); type: toxicity, cell-based
# MCF-10A [16] = assay: Induction of apoptosis in human MCF-10A cells assessed as late apoptotic cells incubated for 24 hrs by Annexin V-FITC/PI staining based flow cytometry (reference value: 2.16 %); type: toxicity, cell-based
# MCF-10A [17] = assay: Induction of apoptosis in human MCF-10A cells assessed as necrotic cells incubated for 24 hrs by Annexin V-FITC/PI staining based flow cytometry (reference value: 0.17 %); type: toxicity, cell-based
# MDA-MB-231 [18] = assay: Induction of apoptosis in human MDA-MB-231 cells assessed as increase in caspase-3 activity incubated for 24 hrs; type: functional, cell-based
# MCF-10A [19] = assay: Induction of apoptosis in human MCF-10A cells assessed as increase in caspase-3 activity incubated for 24 hrs; type: toxicity, cell-based
# MDA-MB-231 [20] = assay: Induction of apoptosis in human MDA-MB-231 cells incubated for 24 hrs by TUNEL assay; type: functional, cell-based
# MDA-MB-231 [21] = assay: Inhibition of mitochondrial membrane potential in human MDA-MB-231 cells assessed as decrease in ATP level incubated for 24 hrs by luminescence based analysis; type: functional, cell-based
# MDA-MB-231 [22] = assay: Inhibition of mitochondrial membrane potential in human MDA-MB-231 cells assessed as increase in intracellular calcium ion level incubated for 24 hrs by Fluo-4 AM dye based analysis; type: functional, cell-based
# MDA-MB-231 [23] = assay: Inhibition of mitochondrial membrane potential in human MDA-MB-231 cells incubated for 24 hrs by JC-1 dye based analysis; type: functional, cell-based
# MCF-10A [24] = assay: Inhibition of mitochondrial membrane potential in human MCF-10A cells incubated for 24 hrs by JC-1 dye based analysis; type: toxicity, cell-based
# MDA-MB-231 [25] = assay: Induction of DNA damage in human MDA-MB-231 cells assessed as increase in gamma-H2AX level incubated for 24 hrs by immunofluorescence based analysis; type: functional, cell-based
# MDA-MB-231 [26] = assay: Antitumor activity against human MDA-MB-231 cells assessed as sphere-forming efficiency incubated for 6 hrs followed by medium replacement without compound measured after 6 days by microscopic analysis (reference value: 1.07 %); type: functional
# MDA-MB-231 [27] = assay: Antitumor activity against human MDA-MB-231 cells assessed as reduction in sphere volume incubated for 6 hrs followed by medium replacement without compound measured after 6 days by microscopic analysis; type: functional, cell-based
# MDA-MB-231 [28] = assay: Antitumor activity against human MDA-MB-231 cells xenografted in BALB/c nude mouse assessed as tumor growth inhibition at 20 mg/kg, iv administered every two days for 21 days; type: functional, organism-based; conditions: time 21.0 day
# MDA-MB-231 [29] = assay: Antitumor activity against human MDA-MB-231 cells xenografted in BALB/c nude mouse assessed as tumor size at 20 mg/kg, iv administered every two days for 21 days (reference value: 1940 mm3); type: functional; conditions: time 21 day
# MDA-MB-231 [30] = assay: Antitumor activity against human MDA-MB-231 cells xenografted in BALB/c nude mouse at 20 mg/kg, iv administered every two days for 21 days relative to control; type: functional; conditions: MDA-MB-231, 504 h, time 21 day, read-out: TGI
# [31] = Toxicity in BALB/c nude mouse xenografted with human MDA-MB-231 cells assessed as body weight change at 20 mg/kg, iv administered every two days for 21 days; type: organism-based; conditions: in vivo, 504 h, time 21 day
# MDA-MB-231 [32] = assay: Cytotoxicity against human MDA-MB-231 cells assessed as decrease in cell viability at 5 uM incubated for 48 hrs by MTT assay relative to control; type: functional
# MDA-MB-231 [33] = assay: Cytotoxicity against human MDA-MB-231 cells incubated for 12 hrs by MTT assay; type: functional, cell-based; conditions: MDA-MB-231, 12 h
compound,measurement,setting,value
OC[C@H]1O[C@@H](Oc2ccc(C[n+]3cccc4cccc(O)c43)cc2)[C@H](O)[C@@H](O)[C@@H]1O.[Cl-],IC50,MDA-MB-231 [1],17.9 µM
same,IC50,MDA-MB-231 [2],31 µM
same,IC50,MDA-MB-231 [3],26.2 µM
same,Activity,MCF-10A [4],Non-toxic
same,selectivity ratio,[5],5.7
same,logP,[6],2.93
same,logD,[7],1.72
same,solubility,[8],35.5 µg/mL
same,solubility,[9],34.2 µg/mL
same,Activity,MDA-MB-231 [10],53.4%
same,Activity,MDA-MB-231 [11],36.1%
same,Activity,MDA-MB-231 [12],10.5%
same,Activity,MDA-MB-231 [13],0.043%
same,viability at 24 h,[14],87.4%
same,Activity,MCF-10A [15],5.79%
same,Activity,MCF-10A [16],6.44%
same,Activity,MCF-10A [17],0.4%
same,Activity,MDA-MB-231 [18],Dose-dependent-effect
same,Activity,MCF-10A [19],Non-toxic
same,Activity,MDA-MB-231 [20],Active
same,inhibition,MDA-MB-231 [21],Active
same,inhibition,MDA-MB-231 [22],Active
same,inhibition,MDA-MB-231 [23],Active
same,inhibition (INH),MCF-10A [24],Non-toxic
same,Activity,MDA-MB-231 [25],Active
same,Activity,MDA-MB-231 [26],0.26%
same,Activity,MDA-MB-231 [27],Active
same,inhibition,MDA-MB-231 [28],Active
same,Activity,MDA-MB-231 [29],970 mm3
same,inhibition in vivo at 20 mg/kg,MDA-MB-231 [30],49.6%
same,Activity,[31],Non-toxic
Br.[N-]=[N+]=Nc1ccc(C[n+]2cccc3cccc(O)c32)cc1,Activity,MDA-MB-231 [32],<25%
O=C(CCc1ccc(O)cc1)c1c(O)cc(O)cc1O[C@@H]1O[C@H](CO)[C@@H](O)[C@H](O)[C@H]1O [PHLORIZIN],IC50,MDA-MB-231 [33],26.2 µM
